One assay has as its system MV-4-11 cells. The assay can be described thus: CellTiter-Glo cell viability, MV-4-11 cells. The conditions noted are these: co-dosed 1:1 with CRBN ligand 8049, MV-4-11, 24 h, 1 nM-100 μM each. It counts as cell-based. In short, it runs like this:
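Viability by CellTiter-Glo luminescence. One protocol: 5×10^4 MV-4-11 cells, 24 h, compounds at 1 nM-100 μM each; other: 1×10^4 cells, 72 h, 10 nM-100 μM each. BRD ligands combined 1:1 with CRBN ligands; dose-response curves fitted.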
Background: In ATP-based viability assays light output follows the ATP content of the culture.

In a further assay the target is T1, BRD3 (Homo sapiens, UniProt Q15059).
T1 construct: endogenous in cells; host or cells: HCT116
The assay can be described thus: BRD protein family degradation in HCT116 cells, Western blot: BRD3. It counts as cell-based. The conditions noted are these: 1:1 with MDM2 ligands 8310 and 8312 (each), HCT116, 24 h, 100 nM-10 μM. The method, then:
(§1) Namalwa, Ramosm HeLa, MCF7, or HT29 HCT116 cells (2.5-3×10^6) were treated for 24 hours with the indicated compounds solubilized in DMSO. The cells were washed in ice-cold PBS and were then lysed in RIPA lysis buffer (150 mM NaCl, 5 mM EDTA, 1% NP-40, 0.5% sodium deoxycholate, 0.1% SDS, 50 mM Tris, pH 8.0.) with Roche protease inhibitor complete cocktail and phosphatase inhibitors (10 mM sodium fluoride, 10 mM sodium pyrophosphate, 1 mM sodium orthovanadate and 20 mM β-glycerophosphate). The total protein concentrations were determined by Bradford Protein Assay (Pierce) and 10-20 μg of protein was loaded onto 4-15% Tris-Glycine gradient gels (Biorad). After standard gel electrophoresis, the separated proteins were transferred to PVDF membrane by wet transfer. The immunoblots were then blocked for 1 hour in 5% skim milk in TBST or 5% BSA in TBST, according to manufacturer's instructions, before an overnight incubation at 4° C. with indicated antibodies and membranes. […] Signal was detected with ECL Western Blotting Substrate (Pierce) and X-ray film processed with a Konica SRX-101 X-ray film processor or captured by Bio-Rad's Chemidoc Imaging system. […]
On the technique in general: Immunoblotting shows a protein as a band on a membrane.

In the next assay the target is T2, BRD2 (Homo sapiens, UniProt P25440).
T2 construct: endogenous in cells; host or cells: HCT116
The assay can be described thus: BRD protein family degradation in HCT116 cells, Western blot: BRD2. Type of assay: cell-based. The conditions noted are these: 1:1 with MDM2 ligands 8310 and 8312 (each), HCT116, 24 h, 100 nM-10 μM. On the procedure: as §1

For another assay, the system named is SLC19A1. The assay can be described thus: RT-PCR of c-MYC downstream target gene SLC19A1 in HeLa cells. Type of assay: cell-based, Human. As to conditions: combined with MDM2 ligand 8312, HeLa, 10 μM each, 24 h. The method, then:
The suppression of the expression of the downstream c-MYC target, SLC19A1, was measured by RT-PCR using Power SYBR® Green Cells-to-Ct™ Kit (Life Technologies). Adherent cells were plated on 96 well plates at 5,000 cells per well were treated for 24 h with monomer compounds and compounds capable of reversible interactions (1 nM-100 μM). Cells were subsequently washed in ice-cold PBS processed according to the manufacturer's instructions. Quantitative real-time PCR was performed using a ViiA™ 7 Real-time PCR System (Applied Biosystems, Foster City, Calif., USA). GAPDH and ACTB served as internal controls.
HeLa cells (1×10^4) were treated for 24 hours in 96 well plates with the compounds solubilized in DMSO. Compounds were added at 10 μM each and RNA expression measured by the Cells-to Ct method described above (Thermofisher).

In assay [1] the target is T3, BRD4 (Homo sapiens, UniProt O60885). The assay can be described thus: CURE-PRO-mediated BRD4 degradation in HCT116 cells, WES (ProteinSimple). It counts as cell-based. Also noted: endogenous in cells. The conditions noted are these: for BRD4 degradation: 10 μM. On the procedure:
All cell lines were purchased from ATCC or DSMZ and grown at 37° C. with 5% CO2. Human HeLa cells were cultured in complete growth medium (Dulbecco's modified Eagle's medium (DMEM) supplemented with 10% FBS); MCF7 cells were cultured in complete growth medium (Dulbecco's modified Eagle's medium (DMEM) supplemented with 10% FBS and 0.01 mg/ml human recombinant insulin (Sigma Aldrich); Namalwa and Ramos cells were cultured in complete growth medium (RPMI 1640 medium supplemented with 10% FBS); HCT116 and HT29 cells were cultured in complete growth medium (McCoy's 5a Medium supplemented with 10% FBS). For cellular degradation of BRD4 studies cells were seeded in a 12-well plate at 70-80% confluency, allowed to attach overnight, and incubated with the indicated compounds for the indicated time. When indicated, a 15-minute pretreatment with 10 μM pomalidomide, 10 μM VHL298, 10 μM Nutlin3a, 1 μM MG-132 or 1 μM Carfilzomib was performed before the addition of CURE-PROs. For washout studies, after CURE-PRO treatment, media was aspirated and incubated with complete medium for the indicated time before lysis.
WES Simple analysis was performed on WES system (ProteinSimple-Biotechne) according to the manufacturer's instructions. Total protein concentrations of cell lysates were determined by the Pierce BCA kit (Thermo Fisher). 3 μL of 0.3 μg/μL of the protein lysate was loaded onto a 12- to 230-kDa WES assay plate (ProteinSimple) where 300 nL sample was withdrawn through a capillary, subjected to electrophoretic separation of proteins by size, and followed by the simultaneous, HRP-based detection of proteins using the Anti-Rabbit Detection Module (Proteinsimple: #DM-001). The electropherograms were checked then the automatic peak detection was manually corrected if it was required.
HCT116 cells (3×10^6) were treated for 24 hours with the compounds solubilized in DMSO. Compounds were added at 1 μM-10 μM each. Standardized protein samples were electrophoresed and imaged as described in the WES ProteinSimple section above. FIGS. 59, 60, and 61 depict the concentration-dependence of CURE-PRO-mediated BRD4 degradation using MDM2 ligands.
HCT116 cells (3×10^6) were treated for 24 hours with the compounds solubilized in DMSO. Compounds were added at 1 μM-10 μM each. Standardized protein samples were electrophoresed and imaged as described in the WES ProteinSimple section above. FIGS. 62 and 63 depict the concentration-dependence of CURE-PRO-mediated BRD4 degradation using MDM2 ligands.
HCT116 cells (3×10^6) were treated for 24 hours with the compounds solubilized in DMSO. CURE-PRO monomers were added at 10 μM each and the proteasomal inhibitors at 1 μM. Standardized protein samples were electrophoresed and imaged as described in the WES ProteinSimple section above. FIG. 68 depicts the dependence of the proteasome for CURE-PRO-mediated BRD4 degradation.

The target of assay [2] is T3, BRD4. The assay can be described thus: BRD protein family degradation in HCT116 cells, Western blot: BRD4. More on the design: endogenous in cells. It counts as cell-based. On the procedure: Namalwa, Ramosm HeLa, MCF7, or HT29 HCT116 cells (2.5-3×10^6) were treated for 24 hours with the indicated compounds solubilized in DMSO. The cells were washed in ice-cold PBS and were then lysed in RIPA lysis buffer (150 mM NaCl, 5 mM EDTA, 1% NP-40, 0.5% sodium deoxycholate, 0.1% SDS, 50 mM Tris, pH 8.0.) with Roche protease inhibitor complete cocktail and phosphatase inhibitors (10 mM sodium fluoride, 10 mM sodium pyrophosphate, 1 mM sodium orthovanadate and 20 mM β-glycerophosphate). The total protein concentrations were determined by Bradford Protein Assay (Pierce) and 10-20 μg of protein was loaded onto 4-15% Tris-Glycine gradient gels (Biorad). After standard gel electrophoresis, the separated proteins were transferred to PVDF membrane by wet transfer. The immunoblots were then blocked for 1 hour in 5% skim milk in TBST or 5% BSA in TBST, according to manufacturer's instructions, before an overnight incubation at 4° C. with indicated antibodies and membranes. Membranes were then incubated with the appropriate horseradish peroxidase-conjugated secondary antibodies (1:5,000 dilution) for 1 h at room temperature and the bands were visualized using the Clarity Max Western ECL Substrate (Biorad) and the ChemiDoc Imaging System (Biorad). Signal was detected with ECL Western Blotting Substrate (Pierce) and X-ray film processed with a Konica SRX-101 X-ray film processor or captured by Bio-Rad's Chemidoc Imaging system.
HCT116 cells (3×10^6) were treated for 24 hours with the compounds solubilized in DMSO. Compounds were added at 100 nM-10 μM each. Standardized protein samples were electrophoresed and imaged as described in the Immunoblotting section above. FIGS. 64 and 65 depict the concentration-dependence of CURE-PRO-mediated BRD2 and BRD3 degradation using MDM2 ligands.

Assay [3] deals with T3, BRD4. The assay can be described thus: Summary of BRD4 degradation by CURE-PRO pairs, estimated from Western Blot or WES. It counts as cell-based. Also noted: endogenous in cells. In short, it runs like this:
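Degradation read-out from immunoblot with ECL, or WES capillary electrophoresis with HRP detection, of RIPA lysates. Cells (Namalwa, Ramos, HeLa, MCF7, HT29 or HCT116) were exposed to DMSO-solubilized compounds for 24 h; a check mark marks 30% to 70% or higher degradation.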

“Also recorded” adds a separate entry of the source.

T1 sequence (Q15059 whole entry): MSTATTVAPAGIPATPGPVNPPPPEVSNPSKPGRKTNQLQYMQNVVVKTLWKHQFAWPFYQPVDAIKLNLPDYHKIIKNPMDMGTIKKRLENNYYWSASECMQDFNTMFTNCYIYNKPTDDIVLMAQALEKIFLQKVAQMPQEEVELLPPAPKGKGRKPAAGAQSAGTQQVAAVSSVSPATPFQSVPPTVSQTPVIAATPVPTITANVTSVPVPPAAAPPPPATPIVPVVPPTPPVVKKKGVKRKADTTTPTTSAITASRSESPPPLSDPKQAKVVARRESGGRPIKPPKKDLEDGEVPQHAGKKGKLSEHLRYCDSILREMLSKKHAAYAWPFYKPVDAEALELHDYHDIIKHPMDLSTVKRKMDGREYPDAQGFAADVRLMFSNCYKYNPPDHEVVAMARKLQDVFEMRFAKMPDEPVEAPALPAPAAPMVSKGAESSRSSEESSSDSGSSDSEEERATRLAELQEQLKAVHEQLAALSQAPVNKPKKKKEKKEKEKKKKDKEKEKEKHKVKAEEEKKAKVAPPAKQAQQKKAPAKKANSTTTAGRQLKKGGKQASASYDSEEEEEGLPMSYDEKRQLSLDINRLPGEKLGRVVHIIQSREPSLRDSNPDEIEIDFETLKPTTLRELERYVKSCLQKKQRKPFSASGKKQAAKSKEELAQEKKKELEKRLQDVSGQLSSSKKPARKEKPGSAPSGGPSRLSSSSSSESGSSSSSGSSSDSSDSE
T2 sequence (P25440 whole entry): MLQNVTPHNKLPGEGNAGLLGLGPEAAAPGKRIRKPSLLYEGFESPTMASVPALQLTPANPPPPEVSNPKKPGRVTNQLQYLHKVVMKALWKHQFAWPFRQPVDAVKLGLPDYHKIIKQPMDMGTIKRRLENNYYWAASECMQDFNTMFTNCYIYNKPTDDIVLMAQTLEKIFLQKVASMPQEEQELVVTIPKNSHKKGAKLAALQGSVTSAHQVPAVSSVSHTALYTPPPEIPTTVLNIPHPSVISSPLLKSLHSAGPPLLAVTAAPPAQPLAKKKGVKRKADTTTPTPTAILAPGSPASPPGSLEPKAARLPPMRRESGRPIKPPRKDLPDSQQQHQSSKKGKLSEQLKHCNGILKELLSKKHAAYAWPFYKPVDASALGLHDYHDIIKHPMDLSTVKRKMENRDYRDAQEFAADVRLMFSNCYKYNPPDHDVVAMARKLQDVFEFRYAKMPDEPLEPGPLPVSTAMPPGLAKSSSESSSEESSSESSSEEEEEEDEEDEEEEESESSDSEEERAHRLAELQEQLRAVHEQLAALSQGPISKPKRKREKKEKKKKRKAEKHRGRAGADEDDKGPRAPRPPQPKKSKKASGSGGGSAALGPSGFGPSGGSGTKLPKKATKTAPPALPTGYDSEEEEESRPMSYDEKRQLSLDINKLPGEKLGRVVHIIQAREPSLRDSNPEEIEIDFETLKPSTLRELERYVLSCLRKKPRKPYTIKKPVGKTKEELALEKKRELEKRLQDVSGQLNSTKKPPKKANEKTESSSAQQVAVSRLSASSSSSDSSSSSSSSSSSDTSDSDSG

As to `CCNC(=O)C[C@@H]1N=C(c2ccc(Cl)cc2)c2cc(OCCNC(=O)c3cccc(O)c3O)ccc2-n2c(C)nnc21` [BRD-N25], the “loss of cellular viability (toxicity)” value with MV-4-11 cells is recorded as “concentration-dependent loss in cellular viability; also recorded: increased toxicity”. Moreover, the BRD3 degradation entry on BRD3 is reported as “degradation of BRD3; also recorded: Degradation is evident”. At BRD2, the BRD2 degradation entry is “BRD2 to a lesser extent; also recorded: Degradation is evident”. The “suppression of SLC19A1 expression” value with SLC19A1 is on record as “suppressed more substantially”. Moreover, the “BRD4 degradation with proteasome inhibitors” value at BRD4 [1] (1:1 with 8310 at 10 μM, pre-incubation with MG-132 and Carfilzomib 1 μM, HCT116) is “inhibited by the pre-incubation with MG-132 and Carfilzomib; also recorded: inhibited with the proteasome inhibitors, MG-132 and Carfilzomib”. Besides, the BRD4 degradation entry is “caused BRD4 degradation; also recorded: marked BRD4 degradation” on BRD4 [1] (1:1 with MDM2 ligand 8310, HCT116, 24 h); “caused BRD4 degradation” on BRD4 [1] (1:1 with MDM2 ligand 8312, HCT116, 24 h); “caused BRD4 degradation; also recorded: Degradation is evident” on BRD4 [2] (1:1 with MDM2 ligands 8310 and 8312 (each), HCT116, 24 h, 100 nM-10 μM). Besides, the “selectivity of degradation among BRD2, BRD3 and BRD4” value on BRD4 [2] (with MDM2 ligands 8310 and 8312, HCT116, Western blot) is “some selectivity for BRD3 and BRD4 over BRD2 for 8310 is noted”. Moreover, on BRD4 [3] (Table 5, aromatic 1,2-diol BRD4 ligand + 8310), the “Degradation of BRD4, combination with MDM2 ligand 8310” value was “√ (A black check mark indicates efficacy of 30% to 70% or higher protein degradation)”. For the same compound, the “Degradation of BRD4, combination with MDM2 ligand 8312” value on BRD4 [3] (Table 5, aromatic 1,2-diol BRD4 ligand + 8312) is listed as “√ (A black check mark indicates efficacy of 30% to 70% or higher protein degradation)”.

Values taken from patent publication US20230285570A1, “THERAPEUTICALLY USEFUL CURE-PRO MOLECULES FOR E3 LIGASE MEDIATED DEGRADATION OF PROTEINS, AND METHODS OF MAKING AND USING THEM” (CORNELL UNIVERSITY, priority 2020, published 2023).
